The values that follow come from PubChem BioAssay (NCI).

Holding throughout (test): inhibition of tumour cell growth, NCI panel, 48 h
Assay [1] has as its system CAKI-1 renal.
The test system of assay [2] is HT29 colon.
In assay [3] the test system is NCI-H522 lung.
Assay [4] relates to PC-3 prostate.
The subject of assay [5] is SF-539 CNS.
The subject of assay [6] is SK-MEL-5 melanoma.
The subject of assay [7] is SNB-75 CNS.
In assay [8] the test system is SW-620 colon.
In assay [9] the test system is TK-10 renal.
The subject of assay [10] is UACC-62 melanoma.

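Values below derive from 48-hour exposures of cells grown in 96-well plates, with endpoints linearly interpolated between the two concentrations bracketing the appropriate inhibition level. The concentration for 50% growth inhibition is given as GI50. TGI: total growth inhibition.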

As for `COC(=O)c1oc2c(C(=O)/C=C/c3ccc(OC)cc3)c(OCCN3CCOCC3)ccc2c1C`, the GI50 in [1] is 1.74 µM; in assay [2], 1.94 µM; in [3] it was 1.61 µM; in assay [4] it was 1.84 µM; in [5], 1.64 µM; in assay [6] it was 1.69 µM. Besides, the GI50 was 1.83 µM in assay [7], 1.88 µM in assay [8], 3.31 µM in assay [9] and 1.55 µM in assay [10]. Further, the TGI in assay [1] was found to be 4.94 µM; in [2], 4.48 µM; in assay [3], 3.54 µM; in assay [4], 6.88 µM; in assay [5], 4.1 µM; in assay [6], 3.17 µM. Moreover, the TGI in [7] came to 6.77 µM; in [8], 4.43 µM; in assay [9], 11.9 µM; in [10], 3.19 µM.
Turning to `CC(C)C(=O)c1c(C(F)(F)F)n([O-])c2ccccc2[n+]1=O`, the GI50 in [1] is 0.689 µM; in assay [2] it was 9.43 µM; in assay [3], 1.76 µM; in assay [4], 0.688 µM; in assay [5] it was 1.81 µM; in assay [6] it was 1.63 µM. Also, the GI50 was 15.2 µM in assay [7], 4.34 µM in assay [8], 0.59 µM in [9] and 1.59 µM in [10]. The TGI is 2.1 µM in assay [1]; greater than 36.4 µM in [2]; 15.1 µM in [3]; 3.03 µM in assay [4]; 5.17 µM in [5]; 3.03 µM in assay [6]. Further, the TGI is greater than 42.7 µM in [7], 17.5 µM in assay [8], 2.07 µM in assay [9] and 3.44 µM in assay [10].
In the case of `CNC(=O)c1cccc(C#Cc2cncnc2Nc2ccc(OCc3cccc(F)c3)c(Cl)c2)c1`, the GI50 in assay [1] is 2.09 µM; in [2], 8.64 µM; in assay [3] it was 5.29 µM; in assay [4], 7.49 µM; in [5] it was 4.39 µM; in [6] it was 5.8 µM. For the same compound, the GI50 in [7] was 5.26 µM; in assay [8] it was 7.16 µM; in assay [9], 1.46 µM; in assay [10], 16 µM. Also, the TGI in assay [1] was greater than 25 µM; in assay [2], greater than 25 µM; in [3], greater than 25 µM; in assay [4], greater than 22.8 µM; in [5], 9.69 µM; in assay [6] it was greater than 20.7 µM. Further, the TGI in assay [7] was 14.4 µM; in assay [8] it was greater than 25 µM; in [9] it was 9.03 µM; in assay [10], greater than 25 µM.
For the compound `Cc1ccccc1C(C(=O)NC1CCCCC1)N(C(=O)CNc1ccc(C#N)cc1)c1cccc(F)c1` (configuration not stated), the GI50 in assay [1] was 14.7 µM; in assay [2] it was greater than 100 µM; in assay [3] it was 14.3 µM; in assay [4], 20.3 µM; in assay [5], 16.2 µM; in [6], greater than 71.2 µM. The GI50 in [7] is 1.38 µM; in assay [8], greater than 100 µM; in assay [9] it was 24 µM; in assay [10], 18.7 µM. For the same compound, the TGI in [1] was greater than 62.6 µM; in assay [2], greater than 100 µM; in [3], greater than 100 µM; in assay [4], greater than 100 µM; in assay [5] it was greater than 59.7 µM; in [6] it was greater than 100 µM. Further, the TGI in assay [7] was 8.97 µM; in assay [8] it was greater than 100 µM; in [9], 71.7 µM; in assay [10], greater than 100 µM.
Turning to `COc1ccc2c(c1)C(c1cc(OC)c3c(c1)OCO3)C1=C(COC1=O)N2` (configuration not stated), the GI50 in assay [1] was 0.769 µM; in assay [2], 0.325 µM; in assay [3] it was 0.039 µM; in [4], 0.356 µM; in assay [5] it was 0.318 µM; in [6], 0.262 µM. The GI50 is 0.381 µM in [7], 0.373 µM in [8] and 0.0984 µM in assay [10]. Further, the TGI in [1] was greater than 100 µM; in assay [3] it was 0.232 µM; in assay [4] it was greater than 100 µM; in assay [6] it was 1.9 µM; in [7], 37.6 µM; in [8] it was greater than 100 µM. The TGI was greater than 77.2 µM in [9] and greater than 100 µM in assay [10].
With `O=c1oc2ccc(Br)cc2c(=O)n1-c1ccc(Cl)cc1F`, the GI50 is 0.821 µM in assay [1]; 3.35 µM in [2]; 0.586 µM in [3]; 1.87 µM in assay [4]; 0.854 µM in [5]; 0.323 µM in assay [6]. Besides, the GI50 is 0.572 µM in assay [7], 1.84 µM in assay [8], 4.19 µM in [9] and 0.33 µM in [10]. For the same compound, the TGI in assay [1] was 4.37 µM; in assay [2], greater than 34 µM; in assay [3], 7.69 µM; in [4], 7.81 µM; in assay [5] it was 6.4 µM; in assay [6], 1.08 µM. Besides, the TGI in [7] amounted to 2.8 µM; in assay [8], 11.2 µM; in assay [9], 18.9 µM; in [10], 1.41 µM.
As for `C=CC(=O)Nc1cccc(Oc2nc(Nc3ccc(N4CCN(C)CC4)cc3OC)ncc2Cl)c1`, the GI50 in assay [1] is 0.985 µM; in assay [2], 2.08 µM; in assay [3], 0.308 µM; in assay [4], 2.19 µM; in assay [5] it was 1.98 µM; in assay [6] it was 1.89 µM. In addition, the GI50 in assay [7] is 1.52 µM; in [8], 1.47 µM; in assay [9] it was 0.513 µM; in assay [10], 1.87 µM. In addition, the TGI stood at 2.44 µM in assay [1]; 4.53 µM in assay [2]; 1.75 µM in [3]; 7.03 µM in assay [4]; 3.72 µM in assay [5]; 3.92 µM in assay [6]. For the same compound, the TGI in [7] was determined as 3.98 µM; in [8], 2.96 µM; in [9], 1.86 µM; in assay [10], 3.58 µM.
